The test system of data set [1] is A431. Put plainly: A431 CellTiter-Glo. The format is cell-based. The note with it: Homo sapiens, A-431; 72 h compound incubation; read-out: A431 CTG IC50. The method, boiled down: (§1)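 Luminescence from cellular ATP serves as the viability signal after cells are treated with compound dilutions for 72 h at 37° C. IC50 is derived by curve fitting, with DMSO-treated and 10 μM Staurosporine-treated wells defining the assay window.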

Data set [2] deals with EGFR wt (Homo sapiens, UniProt P00533). The data set is described as follows: EGFR wt Lance assay. The format is biochemical. How it is done:
(§2) Inhibition is indicated as […] [nM] (“−”=not measured). Compounds having an activity designated as “A” provided an IC50≤100 nM; compounds having an activity designated as “B” provided an 100 nM<IC50≤500 nM; compounds having an activity designated as “C” provided an 500 nM<IC50≤1000 nM; compounds having an activity designated as “D” provided an 1000 nM<IC50≤100000 nM; and compounds having an activity designated as “E” provided an IC50>10000 nM.

Data set [3] concerns the target EGFR Exon 20 INSNPH Ba/F3 (Homo sapiens, UniProt P00533, DUP771-773, cells depend on it). Put plainly: EGFR Exon 20 INSNPH Ba/F3 CellTiter-Glo. The format is cell-based. To be noted: CellTiter-Glo, 72 h, read-out: EGFR Exon 20 INSNPH Ba/F3 CTG IC50. The method, boiled down: (§3)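 ATP-based luminescence (CellTiter-Glo) after 72 h compound exposure gives viability; IC50 from dose-response fit. Cells seeded 24 h ahead at 37 °C, 5% CO2. Controls: DMSO vehicle and 10 μM staurosporine; runs kept only if Z′ ≥0.5.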
Background: Cellular ATP, detected with luciferase, serves as a proxy for viable cell number.

For data set [4], the system named is H1975. Put plainly: H1975 CellTiter-Glo. The format is cell-based. The note with it: Homo sapiens, NCI-H1975; 72 h compound incubation; read-out: H1975 CTG IC50. The method, boiled down:
as §1

Data set [5] concerns the target Her2 Exon 20 INSYVMA Ba/F3 (Homo sapiens, UniProt P04626, DUP772-775, cells depend on it). The data set is described as follows: Her2 Exon 20 INSYVMA Ba/F3 CellTiter-Glo. The format is cell-based. To be noted: CellTiter-Glo, 72 h, read-out: Her2 Exon 20 INSYVMA Ba/F3 CTG IC50. An outline of the steps: as §3
Data set [6] concerns H1781. Put plainly: H1781 CellTiter-Glo. The format is cell-based. To be noted: NCI-H1781; 72 h compound incubation; read-out: H1781 CTG IC50. As for the experimental part:
2. Measurement of Cellular Activity
The CellTiter-Glo Luminescent Cell Viability Assay (Promega) is a homogeneous method of determining the number of viable cells in culture. It is based on quantification of ATP, indicating the presence of metabolically active cells. Cells are seeded on day 1 at cell numbers that assure assay linearity and optimal signal intensity. After incubation for 24 h in humidified chambers at 37° C. and 5% CO2, compounds in DMSO are added at different concentrations. Cells are further incubated for 72 h at 37° C. and 5% CO2. Cells treated with the compound vehicle DMSO are used as positive controls and cells treated with 10 μM Staurosporine serve as negative controls. At day 5 the CellTiter Glo Reagent is prepared according to the instructions of the kit (Promega Inc.): Reagent is mixed 1:1 with cell culture medium. Thereon, mixture and assay plates are equilibrated at room temperature for 20 min. Equal volumes of the reagent-medium-mixture is added to the volume of culture medium present in each well. The plates are mixed at ˜200 rpm for 2 minutes on an orbital shaker. The microplates are then incubated at room temperature for 10 minutes for stabilization of the luminescent signal. Following incubation the luminescence is recorded on a Victor microplate reader (Perkin Elmer) using a 200 ms integration time. The data is then analyzed with Excel using the XLFIT Plugin (dose response Fit 205) for IC50-determination. As quality control the Z′-factor is calculated from 16 positive and negative control values. Only assay results showing a Z′-factor ≥0.5 are used for further analysis.
as §2

The target of data set [7] is EGFR T790ML858R (Homo sapiens, UniProt P00533, L858R/T790M). The data set is described as follows: EGFR T790ML858R Lance assay. The format is biochemical. As for the experimental part:
as §2

Data set [8] has as its target T1, HER2 INS YVMA (Homo sapiens, UniProt P04626, INS775YVMA).
T1 construct: purchased DPF
Put plainly: Lance Kinase Activity Assay, HER2 INS YVMA (Her2 Exon 20 INSYVMA Lance). The format is biochemical. To be noted: biochemical Lance assay. An outline of the steps: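 Kinase phosphorylates a ULight-labelled peptide substrate; Eu anti-phospho antibody gives TR-FRET (ex 340 nm, em 665/615 nm). Compounds in 1:3 serial dilution over 8 steps, reaction started with ATP, 1 h at room temperature, stopped with EDTA-containing detection mix for 1 h. IC50 from sigmoidal dose-response curves.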

Data set [9] in a line: Metabolic stability in mouse liver microsomes without cofactor NADPH. The format is in vitro ADME. The note with it: 3 μM test compound, mouse liver microsomes, without NADPH, 50 min, 37° C., LC-MS/MS. An outline of the steps: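 Test compound (3 μM) was incubated with mouse liver microsomes without NADPH at 37° C. Depletion was followed by LC-MS/MS over time up to 50 min.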

Results on 10 compounds are retold here after patent US20220370440A1 (Lead Discovery Center GmbH, priority 2018, published 2022).

Sequence of EGFR Exon 20 INSNPH Ba/F3 (P00533 with tags, fused parts or gaps DUP771-773): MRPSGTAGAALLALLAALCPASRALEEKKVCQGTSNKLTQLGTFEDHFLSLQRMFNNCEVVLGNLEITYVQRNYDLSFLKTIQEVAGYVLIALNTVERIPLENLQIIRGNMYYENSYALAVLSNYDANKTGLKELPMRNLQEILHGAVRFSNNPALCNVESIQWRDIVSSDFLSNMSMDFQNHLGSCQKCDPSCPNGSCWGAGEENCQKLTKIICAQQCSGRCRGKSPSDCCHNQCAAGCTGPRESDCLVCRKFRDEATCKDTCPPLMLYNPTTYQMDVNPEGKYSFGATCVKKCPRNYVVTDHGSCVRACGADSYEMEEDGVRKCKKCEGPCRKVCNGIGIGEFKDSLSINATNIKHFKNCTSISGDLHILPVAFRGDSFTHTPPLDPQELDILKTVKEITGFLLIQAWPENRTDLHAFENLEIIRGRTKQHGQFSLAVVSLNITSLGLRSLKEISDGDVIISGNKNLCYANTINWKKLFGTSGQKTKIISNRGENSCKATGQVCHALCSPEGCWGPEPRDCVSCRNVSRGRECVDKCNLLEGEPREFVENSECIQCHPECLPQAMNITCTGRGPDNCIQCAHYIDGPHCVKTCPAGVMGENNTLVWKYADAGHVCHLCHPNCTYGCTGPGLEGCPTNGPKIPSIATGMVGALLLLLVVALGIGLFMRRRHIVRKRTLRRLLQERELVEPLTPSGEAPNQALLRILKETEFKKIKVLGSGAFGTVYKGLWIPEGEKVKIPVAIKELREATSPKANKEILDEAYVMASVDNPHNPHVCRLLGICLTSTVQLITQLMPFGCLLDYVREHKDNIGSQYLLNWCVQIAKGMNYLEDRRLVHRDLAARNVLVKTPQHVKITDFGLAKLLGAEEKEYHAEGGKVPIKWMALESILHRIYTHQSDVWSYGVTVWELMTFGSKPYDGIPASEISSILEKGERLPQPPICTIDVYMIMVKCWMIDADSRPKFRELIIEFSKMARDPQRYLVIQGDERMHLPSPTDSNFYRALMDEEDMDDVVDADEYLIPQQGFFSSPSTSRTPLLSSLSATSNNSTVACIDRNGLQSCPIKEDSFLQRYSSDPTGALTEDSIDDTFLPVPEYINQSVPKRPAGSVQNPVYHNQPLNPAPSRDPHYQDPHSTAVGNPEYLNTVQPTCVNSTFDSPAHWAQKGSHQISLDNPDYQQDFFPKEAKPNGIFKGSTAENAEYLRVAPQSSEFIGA
Sequence of EGFR T790ML858R (P00533 25-1210 T790M/L858R): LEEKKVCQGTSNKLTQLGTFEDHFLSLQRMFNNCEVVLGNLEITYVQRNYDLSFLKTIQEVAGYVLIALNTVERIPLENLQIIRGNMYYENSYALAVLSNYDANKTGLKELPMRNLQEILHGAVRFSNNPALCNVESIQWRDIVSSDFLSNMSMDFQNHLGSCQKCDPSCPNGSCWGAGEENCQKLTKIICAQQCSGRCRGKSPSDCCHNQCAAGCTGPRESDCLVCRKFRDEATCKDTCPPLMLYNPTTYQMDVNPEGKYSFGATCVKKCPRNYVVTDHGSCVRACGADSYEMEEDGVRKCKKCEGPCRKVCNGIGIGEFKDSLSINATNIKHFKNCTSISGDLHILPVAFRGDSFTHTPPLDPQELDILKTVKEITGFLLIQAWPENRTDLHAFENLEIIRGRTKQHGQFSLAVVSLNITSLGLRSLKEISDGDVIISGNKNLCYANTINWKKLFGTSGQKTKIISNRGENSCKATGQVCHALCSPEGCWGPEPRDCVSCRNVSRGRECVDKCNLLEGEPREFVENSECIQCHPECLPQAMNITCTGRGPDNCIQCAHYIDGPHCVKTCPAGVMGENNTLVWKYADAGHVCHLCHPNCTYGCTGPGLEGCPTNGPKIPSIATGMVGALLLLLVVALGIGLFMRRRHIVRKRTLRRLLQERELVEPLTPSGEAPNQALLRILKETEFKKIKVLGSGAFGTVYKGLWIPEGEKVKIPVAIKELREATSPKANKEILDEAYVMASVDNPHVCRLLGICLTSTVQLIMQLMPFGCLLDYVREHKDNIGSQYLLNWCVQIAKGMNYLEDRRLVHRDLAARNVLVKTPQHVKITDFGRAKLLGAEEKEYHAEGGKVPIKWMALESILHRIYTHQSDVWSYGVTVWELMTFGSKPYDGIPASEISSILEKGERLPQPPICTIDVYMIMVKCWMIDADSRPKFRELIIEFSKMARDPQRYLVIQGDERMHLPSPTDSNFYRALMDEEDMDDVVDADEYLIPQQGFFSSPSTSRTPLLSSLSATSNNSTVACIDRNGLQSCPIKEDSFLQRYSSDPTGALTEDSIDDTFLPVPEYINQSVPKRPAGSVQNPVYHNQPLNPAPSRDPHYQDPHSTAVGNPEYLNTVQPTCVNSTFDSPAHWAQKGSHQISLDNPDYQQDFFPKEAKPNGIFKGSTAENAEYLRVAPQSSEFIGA
T1 sequence (P04626 with tags, fused parts or gaps INS775YVMA): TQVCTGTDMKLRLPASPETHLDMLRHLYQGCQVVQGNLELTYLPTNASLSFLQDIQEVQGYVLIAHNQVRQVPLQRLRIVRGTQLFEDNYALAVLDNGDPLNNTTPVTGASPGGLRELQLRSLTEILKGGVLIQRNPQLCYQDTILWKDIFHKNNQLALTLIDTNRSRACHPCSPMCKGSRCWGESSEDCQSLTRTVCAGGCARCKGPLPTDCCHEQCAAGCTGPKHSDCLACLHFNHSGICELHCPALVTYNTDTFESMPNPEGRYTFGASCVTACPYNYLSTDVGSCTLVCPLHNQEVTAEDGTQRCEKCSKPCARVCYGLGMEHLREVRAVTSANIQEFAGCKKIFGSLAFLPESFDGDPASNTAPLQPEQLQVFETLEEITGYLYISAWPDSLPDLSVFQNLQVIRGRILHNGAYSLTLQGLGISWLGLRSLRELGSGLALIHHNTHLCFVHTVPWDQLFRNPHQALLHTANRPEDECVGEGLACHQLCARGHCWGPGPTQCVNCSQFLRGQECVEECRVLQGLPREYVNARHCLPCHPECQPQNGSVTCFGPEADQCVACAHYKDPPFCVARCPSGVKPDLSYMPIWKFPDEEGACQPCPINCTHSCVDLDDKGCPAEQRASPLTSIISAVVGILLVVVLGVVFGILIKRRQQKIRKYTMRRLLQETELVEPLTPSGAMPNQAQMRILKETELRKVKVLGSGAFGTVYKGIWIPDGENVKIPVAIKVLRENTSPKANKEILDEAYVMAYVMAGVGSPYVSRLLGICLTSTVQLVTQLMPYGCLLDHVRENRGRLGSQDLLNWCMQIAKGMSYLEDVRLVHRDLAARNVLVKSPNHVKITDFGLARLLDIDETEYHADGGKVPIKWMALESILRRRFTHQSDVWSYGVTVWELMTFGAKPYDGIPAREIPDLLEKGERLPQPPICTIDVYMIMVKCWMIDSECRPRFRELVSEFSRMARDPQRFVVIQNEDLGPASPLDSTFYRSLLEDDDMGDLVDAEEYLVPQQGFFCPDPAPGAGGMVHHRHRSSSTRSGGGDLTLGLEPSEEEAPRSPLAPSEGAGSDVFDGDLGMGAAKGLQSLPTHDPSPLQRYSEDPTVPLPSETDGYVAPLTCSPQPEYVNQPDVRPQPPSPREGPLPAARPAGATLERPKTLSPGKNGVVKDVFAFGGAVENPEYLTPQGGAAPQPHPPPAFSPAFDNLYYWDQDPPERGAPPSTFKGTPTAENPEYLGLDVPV
Sequence of EGFR wt (P00533 25-1210): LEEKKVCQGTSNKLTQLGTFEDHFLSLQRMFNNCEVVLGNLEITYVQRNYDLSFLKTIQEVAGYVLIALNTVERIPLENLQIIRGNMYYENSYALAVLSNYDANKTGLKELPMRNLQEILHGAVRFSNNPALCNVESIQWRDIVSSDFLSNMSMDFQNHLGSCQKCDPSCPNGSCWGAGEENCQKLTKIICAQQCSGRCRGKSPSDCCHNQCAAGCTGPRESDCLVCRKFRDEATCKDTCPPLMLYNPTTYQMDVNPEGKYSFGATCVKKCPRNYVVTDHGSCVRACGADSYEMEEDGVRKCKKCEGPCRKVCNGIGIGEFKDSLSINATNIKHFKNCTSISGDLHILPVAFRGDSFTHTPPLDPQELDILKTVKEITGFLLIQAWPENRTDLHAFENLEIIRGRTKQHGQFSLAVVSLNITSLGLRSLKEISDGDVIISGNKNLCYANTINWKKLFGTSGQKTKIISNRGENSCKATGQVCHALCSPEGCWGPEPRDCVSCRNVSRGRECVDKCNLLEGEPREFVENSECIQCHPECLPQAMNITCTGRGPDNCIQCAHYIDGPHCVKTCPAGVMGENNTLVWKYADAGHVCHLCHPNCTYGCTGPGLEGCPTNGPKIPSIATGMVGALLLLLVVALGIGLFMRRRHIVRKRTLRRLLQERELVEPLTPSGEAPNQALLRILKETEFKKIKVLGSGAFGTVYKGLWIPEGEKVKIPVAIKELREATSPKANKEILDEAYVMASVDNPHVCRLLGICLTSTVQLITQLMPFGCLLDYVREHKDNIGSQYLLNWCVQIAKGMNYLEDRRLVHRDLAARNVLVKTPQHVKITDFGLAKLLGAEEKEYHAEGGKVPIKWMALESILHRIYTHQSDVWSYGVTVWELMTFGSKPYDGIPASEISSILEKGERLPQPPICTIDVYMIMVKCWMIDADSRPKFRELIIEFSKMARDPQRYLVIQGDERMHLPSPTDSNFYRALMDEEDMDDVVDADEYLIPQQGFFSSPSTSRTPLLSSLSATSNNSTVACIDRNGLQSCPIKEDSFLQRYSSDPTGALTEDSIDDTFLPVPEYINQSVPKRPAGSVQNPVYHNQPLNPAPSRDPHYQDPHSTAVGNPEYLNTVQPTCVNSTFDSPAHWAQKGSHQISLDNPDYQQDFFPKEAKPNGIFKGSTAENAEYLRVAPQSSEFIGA

For `C=CC(=O)Nc1cc(-c2c(-c3ccc(C4CCN(C)CC4)cc3)[nH]c3nccc(Cl)c23)ccc1C` [Example 3, N-(5-(4-chloro-2-(4-(1-methylpiperidin-4-yl)phenyl)-1H-pyrrolo[2,3-b]pyridin-3-yl)-2-methylphenyl)acrylamide], the IC50 was 100 to 500 nM in data set [1]; no more than 100 nM in data set [2]; no more than 100 nM in data set [4]; 100 to 500 nM in data set [6]; no more than 100 nM in data set [7]; no more than 100 nM in data set [8]. In addition, the GI50 in data set [3] and in [5] was no more than 100 nM throughout. Moreover, the “Stability in presence of mouse liver microsomes without cofactor NADPH [% remaining after 50 min]” value in data set [9] is recorded as greater than 99 % remaining after 50 min.

For `C=CC(=O)Nc1cc(-c2c(-c3ccc(CCN(C)C)cc3)[nH]c3nccc(Cl)c23)ccc1C` [Example 4, N-(5-(4-chloro-2-(4-(2-(dimethylamino)ethyl)phenyl)-1H-pyrrolo[2,3-b]pyridin-3-yl)-2-methylphenyl)acrylamide], the IC50 is 100 to 500 nM in data set [1]; no more than 100 nM in [2]; no more than 100 nM in data set [4]; 100 to 500 nM in data set [6]; no more than 100 nM in [7]; no more than 100 nM in data set [8]. Also, the GI50 in data set [3] and in data set [5] was 100 to 500 nM throughout. In addition, the “Stability in presence of mouse liver microsomes without cofactor NADPH [% remaining after 50 min]” value in data set [9] is listed as greater than 99 % remaining after 50 min.

On to `C=CC(=O)Nc1cc(-c2c(-c3ccc(CN4CCOCC4)cc3)[nH]c3nccc(Cl)c23)ccc1C` [Example 5, N-(5-(4-chloro-2-(4-(morpholinomethyl)phenyl)-1H-pyrrolo[2,3-b]pyridin-3-yl)-2-methylphenyl)acrylamide], for which the IC50 in [1] was greater than 10000 nM; in data set [2], no more than 100 nM; in data set [4], no more than 100 nM; in data set [6] it was greater than 10000 nM; in data set [7], no more than 100 nM; in [8] it was no more than 100 nM. In addition, the GI50 in data set [3] and in [5] was 100 to 500 nM in each case. Also, in data set [9], the “Stability in presence of mouse liver microsomes without cofactor NADPH [% remaining after 50 min]” value is reported as greater than 99 % remaining after 50 min.

For the compound `C=CC(=O)Nc1cc(-c2c(-c3ccc(N4CCN(C(C)=O)CC4)cc3)[nH]c3nccc(Cl)c23)ccc1C` [Example 8, N-(5-(2-(4-(4-acetylpiperazin-1-yl)phenyl)-4-chloro-1H-pyrrolo[2,3-b]pyridin-3-yl)-2-methylphenyl)acrylamide], the IC50 in data set [1] was 100 to 500 nM; in data set [2], no more than 100 nM; in data set [4], no more than 100 nM; in data set [6] it was 100 to 500 nM; in data set [7], no more than 100 nM; in data set [8], no more than 100 nM. Also, the GI50 in data set [3] and in data set [5] was 100 to 500 nM throughout. Moreover, in data set [9], the “Stability in presence of mouse liver microsomes without cofactor NADPH [% remaining after 50 min]” value was greater than 99 % remaining after 50 min.

As for `C=CC(=O)Nc1cc(-c2c(-c3ccc(CN(C)C)cc3)[nH]c3nccc(Cl)c23)ccc1C` [Example 10, N-(5-(4-chloro-2-(4-((dimethylamino)methyl)phenyl)-1H-pyrrolo[2,3-b]pyridin-3-yl)-2-methylphenyl)acrylamide], the IC50 in data set [1] is 500 to 1000 nM; in data set [2], no more than 100 nM; in [4], no more than 100 nM; in data set [6] it was 100 to 500 nM; in data set [7] it was no more than 100 nM; in data set [8], no more than 100 nM. In addition, the GI50 in data set [3] and in data set [5] was no more than 100 nM each time. Moreover, the “Stability in presence of mouse liver microsomes without cofactor NADPH [% remaining after 50 min]” value in data set [9] is on record as greater than 99 % remaining after 50 min.

As for `C=CC(=O)Nc1cc(-c2c(-c3ccc(C(=O)N4CCOCC4)cc3)[nH]c3nccc(Cl)c23)ccc1C` [Example 11, N-(5-(4-chloro-2-(4-(morpholine-4-carbonyl)phenyl)-1H-pyrrolo[2,3-b]pyridin-3-yl)-2-methylphenyl)acrylamide], the IC50 was 100 to 500 nM in data set [1]; no more than 100 nM in [2]; no more than 100 nM in data set [4]; 500 to 1000 nM in data set [6]; no more than 100 nM in [7]; no more than 100 nM in data set [8]. The GI50 in data set [3] and in [5] was 100 to 500 nM throughout. Also, the “Stability in presence of mouse liver microsomes without cofactor NADPH [% remaining after 50 min]” value in data set [9] was greater than 99 % remaining after 50 min.

Take `C=CC(=O)Nc1cc(-c2c(-c3ccc(OCCCN(C)C)cc3)[nH]c3nccc(Cl)c23)ccc1C` [Example 13, N-(5-(4-chloro-2-(4-(3-(dimethylamino)propoxy)phenyl)-1H-pyrrolo[2,3-b]pyridin-3-yl)-2-methylphenyl)acrylamide]: the IC50 was 100 to 500 nM in data set [1]; no more than 100 nM in data set [2]; no more than 100 nM in [4]; 100 to 500 nM in data set [6]; no more than 100 nM in [7]; no more than 100 nM in data set [8]. Further, the GI50 in data set [3] and in data set [5] was 100 to 500 nM in each case. In addition, the “Stability in presence of mouse liver microsomes without cofactor NADPH [% remaining after 50 min]” value in data set [9] came out at 95 % remaining after 50 min.

For `C=CC(=O)Nc1cc(-c2c(-c3ccc(N4CCN(S(=O)(=O)CC)CC4)cc3)[nH]c3nccc(Cl)c23)ccc1C` [Example 15, N-(5-(4-chloro-2-(4-(4-(ethylsulfonyl)piperazin-1-yl)phenyl)-1H-pyrrolo[2,3-b]pyridin-3-yl)-2-methylphenyl)acrylamide], the IC50 in data set [1] was 100 to 500 nM; in data set [2] it was no more than 100 nM; in data set [4], no more than 100 nM; in data set [6] it was 500 to 1000 nM; in [7] it was no more than 100 nM; in data set [8] it was 100 to 500 nM. Moreover, the GI50 in [3] and in data set [5] was 100 to 500 nM each time. In data set [9], the “Stability in presence of mouse liver microsomes without cofactor NADPH [% remaining after 50 min]” value was greater than 99 % remaining after 50 min.

`C=CC(=O)Nc1cc(-c2c(-c3cccc(CN4CCN(C)CC4)c3)[nH]c3nccc(Cl)c23)ccc1C` [Example 16, N-(5-(4-chloro-2-(3-((4-methylpiperazin-1-yl)methyl)phenyl)-1H-pyrrolo[2,3-b]pyridin-3-yl)-2-methylphenyl)acrylamide]: the IC50 in [1] was 500 to 1000 nM; in [2] it was no more than 100 nM; in data set [4] it was no more than 100 nM; in data set [6] it was 500 to 1000 nM; in [7], no more than 100 nM; in data set [8], no more than 100 nM. Further, the GI50 in data set [3] and in data set [5] was 100 to 500 nM in each case. In addition, the “Stability in presence of mouse liver microsomes without cofactor NADPH [% remaining after 50 min]” value in data set [9] is greater than 99 % remaining after 50 min.

As for `C=CC(=O)Nc1cc(-c2c(-c3cccc(N4CCN(C)CC4)c3)[nH]c3nccc(Cl)c23)ccc1C` [Example 17, N-(5-(4-chloro-2-(3-(4-methylpiperazin-1-yl)phenyl)-1H-pyrrolo[2,3-b]pyridin-3-yl)-2-methylphenyl)acrylamide], the IC50 in data set [1] is 100 to 500 nM; in [2], no more than 100 nM; in data set [4] it was no more than 100 nM; in [6], 100 to 500 nM; in [7], no more than 100 nM; in data set [8], no more than 100 nM. Moreover, the GI50 in [3] and in data set [5] was 100 to 500 nM in each case. Also, the “Stability in presence of mouse liver microsomes without cofactor NADPH [% remaining after 50 min]” value in data set [9] stood at 90 % remaining after 50 min.

By IC50 is commonly meant the concentration that gives 50% inhibition.
